Read-outs that look alike come from different tables or passages of the source.

Series [1] deals with OP-sensible Tetranychus urticae. Nature of the series: B-2 action against plant-damaging acarids on bean plants. The note with it: 1,6 ppm active ingredient, evaluation after seven days. The format is in vivo. The source says:
B-2. Wirkung gegen pflanzenschädigende Akariden OP-sensible Tetranychus urticae
Die Primärblätter von Bohnenpflanzen (Phaseolus vulgaris) werden 16 Stunden vor dem Versuch mit einem durch T. urticae infestierten, aus einer Massenzucht stammenden Blattstück belegt. Die so mit allen Milben-Stadien infestierten Pflanzen werden nach Entfernung des Blattstücks mit einer Versuchslösung bis zur Tropfnässe besprüht, die wahlweise 0,4 ppm oder 1,6 ppm der zu prüfenden Verbindung enthält. Die Temperatur in der Gewächshauskabine beträgt ca. 25°C.
Nach sieben Tagen wird unter dem Binokular auf Prozentsatz mobiler Stadien (Adulte und Nymphen) und auf vorhandene Eier ausgewertet.

For series [2], the system named is Aedes aegypti. Nature of the series: B-7 larvicidal action in water. As to conditions: 3,3 ppm, after one day. The class given is in vivo. As to the method:
B-7. Larvizidwirkung gegen Aedes aegypti
Auf die Oberfläche von 150 ml Wasser, das sich in einem Behälter befindet, wird soviel einer 0,1 %igen acetonischen Lösung des Wirkstoffes pipettiert, dass Konzentrationen von wahlweise 10 ppm, 3,3 ppm und 1,6 ppm erhalten werden. Nach Verdunsten des Acetons wird der Behälter mit ca. 30-40 3 Tage alten Aedes-Larven beschickt. Nach 1, 2 und 5 Tagen wird die Mortalität geprüft.

The subject of series [3] is L₁-Larven von Lucilia sericata. Nature of the series: B-3 action against L1 larvae in larval culture medium. As to conditions: 96 h, reduced concentration of 100 ppm, after 4 days, read-out: Wirkung (Mortalitätsrate). The class given is in vivo. How it is done:
B-3. Wirkung gegen L₁-Larven von Lucilia sericata
1 ml einer wässrigen Suspension der zu prüfenden Aktivsubstanz werden so mit 3 ml eines speziellen Larvenzuchtmediums bei ca. 50°C vermischt, dass ein Homogenisat von wahlweise 250 ppm oder […] Wirkstoffgehalt entsteht. In jede Reagenzglas-Probe werden ca. 30 Lucilia-Larven (L₁) eingesetzt. Nach 4 Tagen wird die Mortalitätsrate bestimmt. Die Verbindungen aus den Herstellungsbeispielen zeigen bei 250 ppm eine Wirkung von 100 %, wobei die Verbindungen aus den Herstellungsbeispiele, wie z.B. E8, E6, E2, E14, E22, E28, E26, E30, E32, E34, E36 und E38, diese Wirkung auch noch bei der reduzierten Wirkstoffkonzentration von 100 ppm erzielten.

Series [4] deals with Haemonchus concortus und Trichostrongylus colubriformis. Nature of the series: B-5 test on nematode-infected sheep, worm egg count in faeces. The class given is in vivo, Schafen. The note with it: single dose 0,5 mg/kg by stomach tube or intraruminal injection. As to the method: B-5. Versuch an mit Nematoden (Haemonchus concortus und Trichostrongylus colubriformis) infizierten Schafen
Der Wirkstoff wird als Suspension formuliert mit einer Magensonde oder durch Injektion in den Pansen eines Schafes gegeben, das mit Haemonchus concortus und Trychostrongylus colubriformis künstlich infiziert worden ist. Pro Dosis werden 1 bis 3 Tiere verwendet. Jedes Schaf wird nur einmal mit einer einzigen Dosis behandelt, und zwar wahlweise mit 1 mg oder 0,5 mg/kg Körpergewicht. Die Evaluierung erfolgt durch Vergleich der Anzahl der vor und nach Behandlung im Kot der Schafe ausgeschiedenen Wurmeier.
Gleichzeitig und gleichartig infizierte aber unbehandelte Schafe dienen als Kontrolle. […] Verbindungen aus den Herstellungsbeispielen, wie. z.B. E4, E8, E14, E18, E30 bis E32, E 34 und E36, bewirkten dies auch noch bei 0,5 mg/kg.

The test system of series [5] is Meloidogyne incognita. Nature of the series: B-8 soil nematicidal action on tomato plants, root-knot index. The format is in vivo. As to conditions: 0,002 % active substance relative to soil volume, after 4 weeks; result in words. How it is done: B-8. Bodennematizide Wirkung gegen Meloidogyne incognita
Eier von Meloidogyne incognita werden in Sand eingemischt. Dieses Gemisch wird dann in 200 ml fassende Tontöpfe eingebracht (5000 Eier pro Topf). Am gleichen Tag wird pro Topf eine 3 Wochen alte Tomatenpflanze gepflanzt und der formulierte Wirkstoffe mittels Druckapplikation in die Töpfe hineingegeben (0,002 % Aktivsubstanz bezogen auf das Bodenvolumen). Die eingetopften Pflanzen werden nun bei einer Temperatur von 26±1°C und einer relativen Luftfeuchtigkeit von 60 % in einem Gewächshaus aufgestellt. Nach Ablauf von 4 Wochen erfolgt eine Evaluierung durch Untersuchung der Pflanzen auf Wurzelgallbildung nach dem sogenannten Wurzelgall-Index ("Knot Index").

Series [6] concerns Spodoptera littoralis. Nature of the series: B-1 insecticidal stomach-poison action on sprayed cotton plants. The format is in vivo. The note with it: 12,5 ppm active ingredient, after 24 hours, L1 larvae on cotton plants. As to the method: B-1. Insektizide Frassgift-Wirkung bei Spodoptera littoralis
Eingetopfe Baumwollpflanzen im 5-Blatt-Stadium werden mit einer acetonisch/wässrigen Versuchslösung besprüht, die 3, 12,5 oder 50 ppm der zu prüfenden Verbindung enthält.
Nach dem Antrocknen des Belags werden die Pflanzen mit ca. 30 Larven (L₁-Stadium) von Spodoptera littoralis besetzt. Pro Versuchsverbindung und pro Test-Spezies verwendet man zwei Pflanzen. Der Versuch wird bei ca. 24°C und 60 % relativer Luftfeuchtigkeit durchgeführt Auswertungen und Zwischenauswertungen auf moribunde Tiere, Wachstum und Larven und Frasschäden erfolgen nach 24 Stunden, 48 Stunden und 72 Stunden.

Series [7] relates to Aphis craccivora. Nature of the series: B-6 contact action on infested pea seedlings. The class given is in vivo. As to conditions: for mortality at 25 ppm: Aphis craccivora, 72 h, read-out: Abtötung. The source says:
B-6. Kontaktwirkung auf Aphis craccivora
Erbsenkeimlinge, die mit sämtlichen Entwicklungsstadien der Laus infiziert sind, werden mit einer aus einem Emulsionskonzentrat hergestellten Wirkstofflösung besprüht, die wahlweise 50 ppm, 25 ppm oder 12,5 ppm Wirkstoff enthält. Nach 3 Tagen wird auf mehr als 80 % tote bzw. abgefallene Blattläuse ausgewertet. Nur bei dieser Wirkungshöhe wird ein Präparat als wirksam eingestuft.

In series [8] the test system is Dermanyssus gallinae. Nature of the series: B-4 miticidal action, wetting test in glass container. As to conditions: 72 h, observed for three days, read-out: Wirkung (Mortalität). The class given is in vivo. How it is done:
B-4. Milbizide Wirkung gegen Dermanyssus gallinae
2 bis 3 ml einer Testlösung (100, 10, 1 und 0,1 ppm Aktivsubstanz) werden in einem nach oben offenen Glasbehälter gegeben und ca. 200 Milben in unterschiedlichen Entwicklungstadien in diesen Behälter eingesetzt. Der Glasbehälter wird mit einem Wattebausch verschlossen und 10 Minuten gleichmässig, bis zur vollständigen Benetzung der Milben geschüttelt. Danach wird der Behälter umgekehrt hingestellt, bis die überschüssige Testlösung von der Watte aufgesogen ist. Der Behälter wird erneut gekehrt und die behandelten Zecken zur Evaluierung der Wirksamkeit der Testsubstanzen drei Tage unter Laborbedingungen beobachtet, wobei die Mortalität als Massstab für Wirksamkeit herangezogen wird.

As to `CC[C@H]1O[C@]2(CC[C@@H]1C)C[C@@H]1C[C@@H](C/C=C(\C)[C@H](OC(=O)Nc3ccc([N+](=O)[O-])cc3)[C@@H](C)/C=C/C=C3\CO[C@@H]4[C@H](O)C(C)=C[C@@H](C(=O)O1)[C@]34O)O2` [Beispiel E20, 13β-N-(4-Nitrophenyl)-carbamoyloxy-milbemycin A₄], in series [1], the Abtötung entry is “vollständige Abtötung”. In series [2], the “Abtötung sämtlicher Larven” value was “vollständige Abtötung”.

With `CCc1ccccc1NC(=O)OC1C(C)=CCC2CC(CC3(CCC(C)C(CC)O3)O2)OC(=O)C2C=C(C)C(O)C3OCC(=CC=CC1C)C23O` (stereo not drawn) [Beispiel E36, 13β-N-(2-Ethylphenyl)-carbamoyloxy-milbemycin A₄], the mortality at 100 ppm in series [3] is 100%. For the same molecule, the “Nematodenbefall (Reduktion der Wurmeier im Kot)” value (from here on “Nematodenbefall”) in series [4] was “komplette Reduktion der Wurmeier im Kot”.

On to `CCNC(=O)O[C@H]1/C(C)=C/C[C@@H]2C[C@@H](C[C@]3(CC[C@H](C)[C@@H](CC)O3)O2)OC(=O)[C@@H]2C=C(C)[C@@H](O)[C@H]3OC/C(=C\C=C\[C@@H]1C)[C@]32O` [Beispiel E18, 13β-N-Ethyl-carbamoyloxy-milbemycin A₄], for which the “Wirksamkeit gegen Meloidogyne incognita (Reduktion der Wurzelgallbildung)” value (“Wirksamkeit gegen Meloidogyne incognita” for short) in series [5] was “besonders aktiv”. For the same molecule, in series [4], the “Nematodenbefall” value is “komplette Reduktion der Wurmeier im Kot”.

Turning to `CCC1OC2(CCC1C)CC1CC(CC=C(C)C(OC(=O)Nc3ccccc3[N+](=O)[O-])C(C)C=CC=C3COC4C(O)C(C)=CC(C(=O)O1)C34O)O2` (centres unmarked) [Beispiel E38], the mortality at 100 ppm in series [3] came out at 100%.

Take `CCC1OC2(CCC1C)CC1CC(CC=C(C)C(OC(=O)Nc3ccccc3Br)C(C)C=CC=C3COC4C(O)C(C)=CC(C(=O)O1)C34O)O2` (stereo not drawn) [Beispiel E34, 13β-N-(2-Bromphenyl)-carbamoyloxy-milbemycin A₄]: the mortality at 100 ppm in series [3] was 100%. In series [4], the “Nematodenbefall” value was “komplette Reduktion der Wurmeier im Kot”.

`CCC1OC2(CCC1C)CC1CC(CC=C(C)C(OC(=O)NC3CCCCC3)C(C)C=CC=C3COC4C(O)C(C)=CC(C(=O)O1)C34O)O2` (stereo not drawn) [Beispiel E12, 13β-N-Cyclohexylcarbamoyloxy-milbemycin A₄]: the Abtötung result in series [6] is given as “vollständige Abtötung”; in series [7] (25 ppm, after 3 days), 100%.

For `CCC1OC2(CCC1C)CC1CC(CC=C(C)C(OC(=O)NCc3ccccc3)C(C)C=CC=C3COC4C(O)C(C)=CC(C(=O)O1)C34O)O2` (stereo not drawn) [Beispiel E28, 13β-N-Benzyl-carbamoyloxy-milbemycin A₄], the mortality at 100 ppm in series [3] is 100%.

As for `CCC1OC2(CCC1C)CC1CC(CC=C(C)C(OC(=O)Nc3ccc(Br)cc3)C(C)C=CC=C3COC4C(O)C(C)=CC(C(=O)O1)C34O)O2` (stereo not drawn) [Beispiel E14, 13β-N-(4-Bromphenyl)carbamoyloxy-milbemycin A₄], the mortality at 100 ppm in series [3] is 100%. Moreover, the Abtötung result in series [6] is recorded as “vollständige Abtötung”. Besides, the mortality at 25 ppm in series [7] (25 ppm, after 3 days) is 100%. The “Abtötung sämtlicher Larven” value in series [2] was “vollständige Abtötung”. Moreover, the “Nematodenbefall” value in series [4] is reported as “komplette Reduktion der Wurmeier im Kot”.

For the molecule `CCC1OC2(CCC1C)CC1CC(CC=C(C)C(OC(=O)NC)C(C)C=CC=C3COC4C(O)C(C)=CC(C(=O)O1)C34O)O2` (stereo not drawn) [Beispiel E2, 13β-N-Methyl-carbamoyloxy-milbemycin A₄], in series [3], the mortality at 100 ppm turned out to be 100%. In series [5], the “Wirksamkeit gegen Meloidogyne incognita” value is given as “besonders aktiv”.

As to `CCC1OC2(CCC1C)CC1CC(CC=C(C)C(OC(=O)NC(C)c3ccccc3)C(C)C=CC=C3COC4C(O)C(C)=CC(C(=O)O1)C34O)O2` [Beispiel E30, 13β-N-((S)-1-Phenylethyl)-carbamoyloxy-milbemycin A₄], in series [3], the mortality at 100 ppm was determined as 100%.

Consider `CC[C@H]1O[C@]2(CC[C@@H]1C)C[C@@H]1C[C@@H](C/C=C(\C)[C@H](OC(=O)NC(C)(C)C)[C@@H](C)/C=C/C=C3\CO[C@@H]4[C@H](O)C(C)=C[C@@H](C(=O)O1)[C@]34O)O2` [Beispiel E4, 13β-N-tert.-Butyl-carbamoyloxy-milbemycin A₄], for which the Abtötung result in series [6] is on record as “vollständige Abtötung”. For the same molecule, the “Abtötung sämtlicher Larven” value in series [2] is listed as “vollständige Abtötung”. Also, the “Nematodenbefall” value in series [4] was “komplette Reduktion der Wurmeier im Kot”.

In the case of `CCC1OC2(CCC1C)CC1CC(CC=C(C)C(OC(=O)NC(C)C)C(C)C=CC=C3COC4C(O)C(C)=CC(C(=O)O1)C34O)O2` (stereo not drawn) [Beispiel E26, 13β-Isopropyl-carbamoyloxy-milbemycin A₄], the mortality at 100 ppm in series [3] was 100%. Besides, the mortality at 10 ppm in series [8] turned out to be 100%.

Turning to `CC[C@H]1O[C@]2(CC[C@@H]1C)C[C@@H]1C[C@@H](C/C=C(\C)[C@H](OC(=O)N(C)C)[C@@H](C)/C=C/C=C3\CO[C@@H]4[C@H](O)C(C)=C[C@@H](C(=O)O1)[C@]34O)O2` [Beispiel E16, 13β-N,N-Dimethyl-carbamoyloyx-milbemycin A₄], the “Wirksamkeit gegen Meloidogyne incognita” value in series [5] is listed as “besonders aktiv”. The Abtötung result in series [6] is listed as “vollständige Abtötung”.

Consider `CCC1OC2(CCC1C)CC1CC(CC=C(C)C(OC(=O)Nc3ccccc3)C(C)C=CC=C3COC4C(O)C(C)=CC(C(=O)O1)C34O)O2` (stereo not drawn) [Beispiel E6, 13β-N-Phenyl-carbamoyloxy-milbemycin A₄], for which the mortality at 100 ppm in series [3] came to 100%. The Abtötung entry in series [6] is given as “vollständige Abtötung”.

As for `CNC(=O)OC1C(C)=CCC2CC(CC3(CCC(C)C(C(C)C)O3)O2)OC(=O)C2C=C(C)C(O)C3OCC(=CC=CC1C)C23O` (stereo not drawn) [Beispiel E10, 13β-N-Methylcarbamoyloxy-milbemycin D], the “Wirksamkeit gegen Meloidogyne incognita” value in series [5] is listed as “besonders aktiv”. Moreover, the Abtötung entry in series [6] is “vollständige Abtötung”. In series [8], the mortality at 10 ppm stood at 100%. For the same molecule, in series [7], the mortality at 25 ppm came to 100%.

As to `CCC1OC2(CCC1C)CC1CC(CC=C(C)C(OC(=O)N(C(C)C)C(C)C)C(C)C=CC=C3COC4C(O)C(C)=CC(C(=O)O1)C34O)O2` (stereo not drawn) [Beispiel E8, 13β-N,N-Diisopropyl-carbamoyloxy-milbemycin A₄], the mortality at 100 ppm in series [3] was 100%. Besides, the mortality at 10 ppm in series [8] was 100%. The mortality at 25 ppm in series [7] (25 ppm, after 3 days) came to 100%. Also, the “Abtötung sämtlicher Larven” value in series [2] is listed as “vollständige Abtötung”. The “Nematodenbefall” value in series [4] is listed as “komplette Reduktion der Wurmeier im Kot”.

For the origin of these results see patent EP0239528A1, “13-Beta-carbamoyloxy-milbemicyne derivatives for fighting harmful animal and plant parasites” (CIBA-GEIGY AG, priority 1986, dated 1987).
